Experimental data: article PMC6198970, “Safety, efficacy, and dose response of the maturation inhibitor GSK3532795 (formerly known as BMS-955176) plus tenofovir/emtricitabine once daily in treatment-naive HIV-1-infected adults: Week 24 primary analysis from a randomized Phase IIb trial” (PLoS ONE, 2018)
Read-outs that look alike come from different tables or passages of the source.

How the values were obtained:
[1] = system: HIV-1; conditions: ref AI468002, cited from earlier work
[2] = Population PK model (NONMEM); format: in vivo, HIV-1-infected adults
Protocol: Population PK analyses were conducted via non-linear mixed effects using non-linear mixed-effects modeling (NONMEM) software, version 7, level 2.0 (ICON Development Solutions, Hanover, Maryland, USA).[17] A summary of the population PK modeling methods and exposure response exploratory analyses for efficacy and safety is included in Supporting information.
Population pharmacokinetic (PK) analyses were conducted via nonlinear mixed-effects modelling using nonlinear mixed effects modeling (NONMEM) software, version 7, level 2.0 (ICON Development Solutions, Hanover, MD). Assessment of model adequacy and decision about increasing model complexity was driven by the data and guided by goodness-of-fit criteria, including visual inspection of diagnostic scatter plots (observed versus predicted concentration, residual/weighted residual versus predicted concentration or time and histograms of individual random effects, for example), successful convergence of the minimization routine, plausibility of parameter estimates, precision of parameter estimates, correlation between model parameter estimation errors < 0.95, and the Akaike information criterion (AIC), given the minimum objective function value and number of estimated parameters. An exploratory investigation of covariate-parameter relationships was undertaken as part of the population PK analysis. Predictive performance was assessed using stratified non-parametric bootstrapping (n=500). Following the construction of a suitable PK model, individual-specific steady-state exposure metrics were derived for exposure-response investigation. An exploratory plotting analysis was performed to investigate exposure–response relationships for efficacy and safety endpoints, where endpoints including fraction of participants with <40 c/mL at Week 24 (modified intent-to-treat population) and percentage of participants with Grade 1, 2, 3, and 4 gastrointestinal events (adverse events >7 days) were analysed as a function of exposure quantiles.

[3] = system: HIV-1; set-up: method as in protocol Section 1.4.1.2; conditions: with representative drugs from NRTI, NNRTI, PI, and INI classes; ref protocol Section 1.4.1.2; cited from earlier work
[4] = ref protocol Section 1.4.1.2, cited from earlier work
[5] = Part A, clade B, 10 days monotherapy, 5 mg

C=C(C)[C@@H]1CC[C@]2(NCCN3CCS(=O)(=O)CC3)CC[C@]3(C)[C@H](CC[C@@H]4[C@@]5(C)CC=C(c6ccc(C(=O)O)cc6)C(C)(C)[C@@H]5CC[C@]43C)[C@@H]12 [GSK3532795]
Maximum decline log10 HIV-1 RNA, max ([1]; Part A, 10 mg): -1.76 Log10 | Maximum decline log10 HIV-1 RNA, mean ([1]; Part A, 10 mg): -1.05 Log10 | Maximum decline log10 HIV-1 RNA, median ([1]; Part A, 10 mg): -0.976 Log10 | Maximum decline log10 HIV-1 RNA, min ([1]; Part A, 10 mg): -0.64 Log10 | Maximum decline log10 HIV-1 RNA, max ([1]; Part A, 20 mg): -2.12 Log10 | Maximum decline log10 HIV-1 RNA, mean ([1]; Part A, 20 mg): -1.17 Log10 | Maximum decline log10 HIV-1 RNA, median ([1]; Part A, 20 mg): -1.115 Log10 | Maximum decline log10 HIV-1 RNA, min ([1]; Part A, 20 mg): -0.13 Log10 | Maximum decline log10 HIV-1 RNA, max ([1]; Part A, 40 mg): -1.88 Log10 | Maximum decline log10 HIV-1 RNA, mean ([1]; Part A, 40 mg): -1.55 Log10 | Maximum decline log10 HIV-1 RNA, median ([1]; Part A, 40 mg): -1.701 Log10 | Maximum decline log10 HIV-1 RNA, min ([1]; Part A, 40 mg): -0.93 Log10 | Maximum decline log10 HIV-1 RNA, max ([1]; Part A, 80 mg): -1.82 Log10 | Maximum decline log10 HIV-1 RNA, mean ([1]; Part A, 80 mg): -1.52 Log10 | Maximum decline log10 HIV-1 RNA, median ([1]; Part A, 80 mg): -1.555 Log10 | Maximum decline log10 HIV-1 RNA, min ([1]; Part A, 80 mg): -1.04 Log10 | Maximum decline log10 HIV-1 RNA, max ([1]; Part A, 120 mg): -2.07 Log10 | Maximum decline log10 HIV-1 RNA, mean ([1]; Part A, 120 mg): -1.53 Log10 | Maximum decline log10 HIV-1 RNA, median ([1]; Part A, 120 mg): -1.654 Log10 | Maximum decline log10 HIV-1 RNA, min ([1]; Part A, 120 mg): -0.83 Log10 | Maximum decline log10 HIV-1 RNA, max [1, 5]: -0.78 Log10 | Maximum decline log10 HIV-1 RNA, mean [1, 5]: -0.49 Log10 | Maximum decline log10 HIV-1 RNA, median [1, 5]: -0.498 Log10 | Maximum decline log10 HIV-1 RNA, min [1, 5]: -0.22 Log10 | Maximum decline log10 HIV-1 RNA, max ([1]; Part C, clade C, 40 mg): -2.03 Log10 | Maximum decline log10 HIV-1 RNA, median ([1]; Part C, clade C, 40 mg): -1.285 Log10 | Maximum decline log10 HIV-1 RNA, min ([1]; Part C, clade C, 40 mg): -1.04 Log10 | Maximum decline log10 HIV-1 RNA, mean ([1]; Part C, clade C, 10 days monotherapy, 40 mg): -1.5 Log10 | Safety in Phase 2a ([1]; alone or with ATV ± RTV for 10-28 days, preliminary): no deaths, SAEs, or AEs leading to discontinuation | Median maximal reductions in HIV-1 RNA ([1]; doses 40 mg SDD once daily and above, clade B and clade C): > 1 log10 | Reduction in clearance in African-American participants ([2]; compared with White participants): 23% | Additive residual error ([2]; final population PK model): 37400 | First-order absorption rate (Ka), estimate ([2]; final population PK model): 0.0236 h⁻¹ | Interindividual variance of CL ([2]; final population PK model): 0.0610 | Interindividual variance of Ka ([2]; final population PK model): 0.164 | Interindividual variance of V ([2]; final population PK model): 0.462 | Interoccasion variance of F1 ([2]; final population PK model): 0.0512 | Proportional residual error ([2]; final population PK model): 0.0165 | clearance ([2]; human, in vivo, oral, final population PK model, read-out: Clearance (CL), estimate (converted)): 37.3 mL/min | Vd ([2]; human, in vivo, oral, final population PK model, read-out: Volume of distribution (V), estimate): 5.58 L | Increase in clearance in participants with Grade ≥2 diarrhea ([2]; relative to no diarrhea): 18% | Effect of 2-drug combinations [3]: additive to synergistic effects | AUC at NOAEL ([4]; 1 mg/kg/day): 64.9 gh/mL | AUC at lowest dose with effects ([4]; 3 mg/kg/day): 135 gh/mL | NOAEL ([4]; dog 9-month, stomach histologic changes): 1 mg/kg/day
